Reference: article PMC2074590 (British Journal of Cancer, 1996)
“Also recorded” adds a separate entry of the source. Read-outs that look alike come from different tables or passages of the source.

Experiments:
[1] = system: endometrial proliferation; set-up: method as in Thomas et al., 1993; settings: short-term studies in women, at serum concentrations similar to the present study; ref Thomas et al., 1993; cited from earlier work
[2] = system: endometrial proliferation; set-up: method as in Dukes et al., 1993; settings: primates, at serum concentrations similar to the present study; ref Dukes et al., 1993; cited from earlier work
[3] = system: endometrium; assay: Endometrial assessment (transabdominal ultrasound thickness, histology); format: in vivo, human
Description: (§1) Bridsh Journal of Cancer (1996) 74, 300-308 ? […] The agent was administered as a monthly depot intramuscular injection. […] The study was approved by the ethics committees of each clinical centre. Patients were eligible for the study if they were post- menopausal and age less than 81 years, with histologically verified breast cancer. […] Patients were excluded if they had serious intercurrent disease, a WHO performance status of greater than 2, and a life expectancy of less than 3 months or had received previous cytotoxic chemotherapy for advanced breast cancer. […] Patients 5-19 received 250 mg month-1 i.m. from the outset. […] Tumour response to therapy was evaluated according to UICC criteria (Hayward et al., 1977). […] Body weight was recorded at each monthly review in the majority of patients. […] The study limit of quantification was 0.68 ng ml-'. […] Gonadotrophins follicle-stimulating hormone and lutenising hormone (FSH and LH) and SHBG were measured by RIA in the Regional Radioimmunoassay Laboratory of the University Hospital of South Manchester. Prolactin was measured by immunoradiometric assay using reagents supplied by Netria. Total cholesterol levels were determined enzymatically using a commercially available reagent (Diamed, Switzerland). […] Serum levels of LDL cholesterol were calculated using the Friedewald equation (Friedewald et al., 1972). […]

[4] = system: advanced breast cancer resistant to tamoxifen; assay: Tumour response to therapy, UICC criteria; format: in vivo, human; set-up: key to Response to 182780: PD: progressive disease; NC: no change; PR: partial response
Description: (§2) Bridsh Journal of Cancer (1996) 74, 300-308 ? […] The agent was administered as a monthly depot intramuscular injection. […] The study was approved by the ethics committees of each clinical centre. Patients were eligible for the study if they were post- menopausal and age less than 81 years, with histologically verified breast cancer. […] Patients were excluded if they had serious intercurrent disease, a WHO performance status of greater than 2, and a life expectancy of less than 3 months or had received previous cytotoxic chemotherapy for advanced breast cancer. […] Patients 5-19 received 250 mg month-1 i.m. from the outset. […] Tumour response to therapy was evaluated according to UICC criteria (Hayward et al., 1977). To qualify for the 'no change' category, tumour growth had to stabilise for more than 6 months (Howell et al., 1988; Robertson et al., 1989). Body weight was recorded at each monthly review in the majority of patients. […] The procedure was applied after solid base clean up of a diethyl ether/hexane extract of serum. The study limit of quantification was 0.68 ng ml-'. […] Gonadotrophins follicle-stimulating hormone and lutenising hormone (FSH and LH) and SHBG were measured by RIA in the Regional Radioimmunoassay Laboratory of the University Hospital of South Manchester. Prolactin was measured by immunoradiometric assay using reagents supplied by Netria. Total cholesterol levels were determined enzymatically using a commercially available reagent (Diamed, Switzerland). Triglyceride levels were determined by the glyceryl phosphate oxidase-peroxidase-antiperox- idase method using a commercially available kit (Boehringer Mannheim, Germany). High-density lipoprotein (HDL) cholesterol levels were measured after pretreatment of the serum samples with buffered magnesium phosphotungstate, which selectively precipitates low-density lipoprotein (LDL) cholesterol, very low-density lipoprotein (VLDL) cholesterol and chylomicrons, leaving HDL cholesterol in the super- natant. Serum levels of LDL cholesterol were calculated using the Friedewald equation (Friedewald et al., 1972). Endometrial assessment Endometrial thickness was measured in transverse section by transabdominal ultrasound using a Siemens Sonoline SL2 with a 3.5 MHz sector probe. Baseline and repeat scans at 3-6 monthly intervals were performed in five patients. […] Pharmacokinectic data were analysed using para- metric statistics. Data relating to body weight, serum gonadotrophin, SHBG and lipid levels were analysed using non-parametric statistics. The null hypothesis was rejected at a probability level of P<0.05. […] However, samples were not available between day 2 and day 8.

[5] = system: total cholesterol, LDL cholesterol, HDL cholesterol, triglyceride; assay: Serum lipid levels during treatment; format: in vivo, human; settings: 12 patients
Description: as §1

[6] = system: serum FSH, LH, prolactin, SHBG; assay: Serum FSH, LH, prolactin and SHBG before and during treatment; format: in vivo, human
Description: as §2

[7] = system: Ki67, ER, PgR, pS2 in primary breast cancer; settings: short-acting propylene glycol-based formulation, daily i.m. for 1 week before surgery, ref DeFriend et al., 1994b, Nicholson et al.; cited from earlier work
[8] = Body weight at monthly review; format: in vivo, human
Description: Bridsh Journal of Cancer (1996) 74, 300-308 ? […] The agent was administered as a monthly depot intramuscular injection. […] The study was approved by the ethics committees of each clinical centre. Patients were eligible for the study if they were post- menopausal and age less than 81 years, with histologically verified breast cancer. […] Patients were excluded if they had serious intercurrent disease, a WHO performance status of greater than 2, and a life expectancy of less than 3 months or had received previous cytotoxic chemotherapy for advanced breast cancer. […] Patients 5-19 received 250 mg month-1 i.m. from the outset. […] Tumour response to therapy was evaluated according to UICC criteria (Hayward et al., 1977). To qualify for the 'no change' category, tumour growth had to stabilise for more than 6 months (Howell et al., 1988; Robertson et al., 1989). Body weight was recorded at each monthly review in the majority of patients. […] The procedure was applied after solid base clean up of a diethyl ether/hexane extract of serum. The study limit of quantification was 0.68 ng ml-'. […] Gonadotrophins follicle-stimulating hormone and lutenising hormone (FSH and LH) and SHBG were measured by RIA in the Regional Radioimmunoassay Laboratory of the University Hospital of South Manchester. Prolactin was measured by immunoradiometric assay using reagents supplied by Netria. Total cholesterol levels were determined enzymatically using a commercially available reagent (Diamed, Switzerland). Triglyceride levels were determined by the glyceryl phosphate oxidase-peroxidase-antiperox- idase method using a commercially available kit (Boehringer Mannheim, Germany). High-density lipoprotein (HDL) cholesterol levels were measured after pretreatment of the serum samples with buffered magnesium phosphotungstate, which selectively precipitates low-density lipoprotein (LDL) cholesterol, very low-density lipoprotein (VLDL) cholesterol and chylomicrons, leaving HDL cholesterol in the super- natant. Serum levels of LDL cholesterol were calculated using the Friedewald equation (Friedewald et al., 1972). […]

[9] = Side-effects, local and systemic drug tolerability; format: in vivo, human
Description: as §2

[10] = system: ER; set-up: method as in Wakeling et al., 1991; settings: ref Wakeling et al., 1991; cited from earlier work

For `C[C@]12CC[C@@H]3c4ccc(O)cc4C[C@@H](CCCCCCCCC[S+]([O-])CCCC(F)(F)C(F)(F)F)[C@H]3[C@@H]1CC[C@@H]2O` (stereo partly drawn) [ICI 182780, 7a-[9(4,4,5,5,pentafluoropentyl-sulphinyl)nonyl]oestra-1 ,3,5,(10)-triene-3,17,B-diol], the “Effect on endometrial proliferation” value [1] is given as “inhibited endometrial proliferation”, the “Effect on endometrial proliferation” value [2] is given as “inhibited endometrial proliferation” and the Endometrial histology ([3]; one patient, hysterectomy after 18 months on treatment) is given as “atrophic post-menopausal pattern with cystic change”. For the same compound, the “Endometrial thickness / effect on endometrium” value ([3]; serial ultrasound in five responding patients, up to 15 months) was “no apparent effect; also recorded: remained unchanged”, the “Median duration of response” value ([4]; 13 responding patients) was 25 months and the Partial response rate ([4]; 19 patients) was 37%. The Progression rate ([4]; 19 patients) was 31%, the “Patients responding (partial response + no change)” value ([4]; 19 patients, after progression on tamoxifen) was 69% and the “No change response rate” value ([4]; 19 patients, stabilisation for more than 6 months) was 32%. For the same compound, the Duration of response ([4]; NC patient with 61 months adjuvant tamoxifen (A61, = patient 15), from Table III) was no less than 23 months, the “Patients still in remission and continuing treatment” value ([4]; after 30-33 months) was “five” and the “Association between duration of treatment with tamoxifen and subsequent response” value ([4]; in vivo) was “no association”. The “Responses in women who progressed while receiving tamoxifen for advanced breast cancer” value ([4]; in vivo) was “six of the nine”, the “Responses in women who relapsed after tamoxifen as adjuvant therapy” value ([4]; in vivo) was “seven of the ten” and the “Number of patients with progression” value ([4]; of 19 patients) was 6 patients. The “Response to 182780” value ([4]; patient 1 (donor kappa)) was “PD”, the Duration of response ([4]; patient 1, PD) was less than 2 months and the “Response to 182780” value ([4]; patient 2 (donor eta)) was “NC”. For the same compound, the Duration of response ([4]; patient 2, NC) was 29 months, the “Response to 182780” value ([4]; patient 3 (donor mu)) was “PR” and the Duration of response ([4]; patient 3, PR) was 12 months. For the same compound, the “Response to 182780” value ([4]; patient 4 (donor lambda)) was “PD”, the Duration of response ([4]; patient 4, PD) was less than 2 months and the “Response to 182780” value ([4]; patient 5 (donor sigma)) was “PR”. The Duration of response ([4]; patient 5, PR) was 8 months, the “Response to 182780” value ([4]; patient 6 (donor delta)) was “PR” and the Duration of response ([4]; patient 6, PR) was 3 months. The “Response to 182780” value ([4]; patient 7 (donor gamma)) was “PD”, the Duration of response ([4]; patient 7, PD) was less than 2 months and the “Response to 182780” value ([4]; patient 8 (donor theta)) was “PR”. For the same compound, the Duration of response ([4]; patient 8, PR) was 25 months, the “Response to 182780” value ([4]; patient 9 (NT)) was “PD” and the Duration of response ([4]; patient 9, PD) was less than 2 months. For the same compound, the “Response to 182780” value ([4]; patient 10 (donor iota)) was “PR”, the Duration of response ([4]; patient 10, PR, + = continuing) was no less than 33 months and the “Response to 182780” value ([4]; patient 11 (donor epsilon)) was “PD”. The Duration of response ([4]; patient 11, PD) was less than 2 months, the “Response to 182780” value ([4]; patient 12 (donor nu)) was “NC” and the Duration of response ([4]; patient 12, NC, + = continuing) was no less than 33 months. The “Response to 182780” value ([4]; patient 13 (donor tau)) was “PD”, the Duration of response ([4]; patient 13, PD) was less than 2 months and the “Response to 182780” value ([4]; patient 14 (donor xi)) was “PR”. The Duration of response ([4]; patient 14, PR, + = continuing) was no less than 32 months, the “Response to 182780” value ([4]; patient 15 (donor omicron)) was “NC” and the “Response to 182780” value ([4]; patient 16 (donor rho)) was “PR”. The Duration of response ([4]; patient 16, PR) was 25 months, the “Response to 182780” value ([4]; patient 17 (donor zeta)) was “NC” and the Duration of response ([4]; patient 17, NC) was 9 months. For the same compound, the “Response to 182780” value ([4]; patient 18 (donor beta)) was “NC”, the Duration of response ([4]; patient 18, NC, + = continuing) was no less than 30 months and the “Response to 182780” value ([4]; patient 19 (donor pi)) was “NC”. For the same compound, the Duration of response ([4]; patient 19, NC, + = continuing) was no less than 30 months, the “Time to objective disease progression in unresponsive patients” value ([4]; six patients unresponsive de novo) was no more than 2 months and the “Change in serum lipids (total cholesterol, LDL cholesterol, HDL cholesterol, triglyceride)” value [5] was “no significant changes”. The Serum SHBG, median level ([6]; after 8 months of treatment, median pretreatment 100, P=NS) was 55 nM, the “Serum LH, median post-treatment value” ([6]; first 3 months of administration, median pre-treatment 26, P<0.005) was 42 IU 1-1 and the “Serum FSH, median post-treatment value” ([6]; first 3 months of administration, median pre-treatment 26, P<0.05) was 52 IU l-1. The “Change in serum SHBG” value ([6]; in vivo) was “no significant changes; also recorded: overall trend to decrease”, the “Change in serum gonadotrophin levels after the first 3 months” value ([6]; in vivo) was “no further significant overall changes” and the “Change in serum prolactin” value ([6]; throughout the treatment period) was “no significant changes; also recorded: did not change significantly”. For the same compound, the “Expression of ER, PgR and pS2 vs pretreatment samples” value [7] was “reduced or absent expression”, the “Tumour proliferation (Ki67 expression) vs pretreatment samples” value [7] was “reduced proliferation” and the “Mean body weight (s.d.)” value ([8]; after 10 months, n = 9) was 64.5 ± 17.2 kg. For the same compound, the “Mean body weight (s.d.)” value ([8]; after 16 months, n=9) was 64.2 ± 18.3 kg, the “Change in body weight during treatment” value ([8]; baseline mean 63.8 kg (n=13)) was “no significant changes” and the “Serious drug-related adverse events” value ([9]; 19 patients) was “No serious drug-related adverse events”. The “Vaginal dryness or altered libido” value ([9]; direct questioning at each monthly attendance) was “None of the patients reported”, the Frequency of side-effects ([9]; in vivo) was “infrequent” and the “Full blood count and biochemical profile” value ([9]; in vivo) was “No clinically significant changes”. For the same compound, the “Hot flushes and night sweats” value ([9]; in vivo) was “not induced; also recorded: not associated with any alteration”, the “Injection-site events: erythema” value ([9]; in vivo) was “a third patient had local erythema at the injection site on one occasion” and the “Local tolerance at the site of injection” value ([9]; long-acting formulation, 5 ml i.m.) was “well tolerated locally”. For the same compound, the “Patients reporting minor systemic adverse events” value ([9]; of 19 patients) was “two”, the “Injection-site events: bruising, tenderness” value ([9]; one occasion each) was “One patient developed bruising over the buttock and a second developed tenderness at the injection site” and the “Potency and affinity for the ER relative to ICI 164384” value [10] was “greater potency and affinity for the ER”.
